Results on seven compounds are retold here after the NIST ThermoML archive (doi:10.1016/j.jct.2012.03.025).

Each structure is given as a SMILES string. ± gives the expanded uncertainty stated by the source.

One may read the mass density as the mass of a sample divided by its volume.

Assay in the first data set: not given
Particulars: 308.15 K; 101 kPa; Liquid; Vibrating tube method.
In the case of `O` [water], the mass density is listed as 994.058 ± 0.044 kg/m3.

The nature of the next data set: mn = molality of the nth substance listed, in mol/kg. To be noted: 308.15 K; 101 kPa; Liquid; Vibrating tube method; m2 = 0.
As to `O` [water] + CC(=O)[O-].CCCCn1cc[n+](C)c1, the mass density is reported as 994.058 ± 0.11 kg/m3.

In the case of `O` [water] + CCCCn1cc[n+](C)c1.F[B-](F)(F)F, the mass density stood at 994.058 ± 0.055 kg/m3.

Consider `O` [water] + CCCCn1cc[n+](C)c1.O=S(=O)([O-])C(F)(F)F, for which the mass density worked out at 994.058 ± 0.079 kg/m3.

With `O` [water] + CCCCn1cc[n+](C)c1.[Br-], the mass density is listed as 994.058 ± 0.064 kg/m3.

In the case of `O` [water] + CCCCn1cc[n+](C)c1.[Cl-], the mass density turned out to be 994.058 ± 0.044 kg/m3.

`O` [water] + CCCCn1cc[n+](C)c1.[I-]: the mass density was 994.058 ± 0.092 kg/m3.
